Source: patent US20220089602A1, “COMPOUNDS THAT INDUCE FERROPTIC CELL DEATH” (The Board of Trustees of the University of Illinois, priority 2019, published 2022)

Tested on: HCT 116 cells
Test: In-gel fluorescence proteome labeling
Assay type: cell-based
Conditions: 30 min dose-dependent treatment
Method: Cells were harvested by centrifugation (500×g, 3 min), washed with PBS, and resuspended in RIPA lysis buffer (50 mM Tris, 150 mM NaCl, 1% Triton X-100, 0.5% sodium deoxycholate, 0.1% SDS, pH=7.4) containing 1× protease inhibitor cocktail on ice. Protein concentration was determined by the Bradford assay and lysates were stored at −20° C. until further use. Samples were resolved in a 4-20% SDS-PAGE gel (Bio-Rad) at 120 V for 70 min. After PBS washes, each gel was scanned for fluorescence signal using a Molecular Dynamics Typhoon 9400 Multilaser Scanner at the Proteomics Center at UIUC (excitation at 526 nm, green laser, high sensitivity, 530 pmt). Gels were then treated with Coomassie Blue stain (Imperial Stain, ThermoFisher) via shaking for 45 min to stain for the total protein content. Upon proteome labeling, gels were destained for 15 min-overnight on MilliQ H2O followed by imaging in a Gel Dox XR+ from Bio-Rad (ex. 470 nm, UV High filter).

CC1=CC(C)=[N+]2C1=Cc1ccc(CCC(=O)NCCCn3cc(CN4C(=O)C5CC=C([C@@H]6C[C@@H](OC(=O)CI)[C@]7(C)[C@H](C)CC[C@]8(C[C@H](O)C(=O)[C@]87O)[C@H]6C)CC5C4=O)nn3)n1[B-]2(F)F (stereo partly shown) [Compound P31]
proteome labeling selectivity: Promiscuous bioactivity
